Values joined by “and” are separate entries in the source; they are usually repeats but may differ in a detail not shown here. Equal values may be shown once. Results filed as inconclusive are left out.
Test system: BDF1 mice, colon carcinoma 38 sc, T/C %
Assay: NCI In Vivo Anticancer Drug Screen. Data for tumor model Colon Carcinoma 38 (subcutaneous) in B6D2F1 (BDF1) mice
Conditions: endpoint: median tumor weight (est.), higher = larger tumour
Procedure: The antitumor activity of compounds was measured in mice bearing transplantable tumors. Survival or tumor size were measured and the results are expressed as the measurement made in the treated group (T) divided by the measurement made in the vehicle treated control group (C). The tumor model used in this assay is Colon Carcinoma 38 (subcutaneous) in B6D2F1 (BDF1) mice

[1] = dose: 12.5 mg/kg/injection, schedule: Q07DX002 (ip), vehicle: distilled water + Tween-80
[2] = dose: 25.0 mg/kg/injection, schedule: Q07DX002 (ip), vehicle: distilled water + Tween-80
[3] = dose: 25.0 mg/kg/injection, schedule: Q07DX002 (ip), vehicle: saline
[4] = dose: 25.0 mg/kg/injection, schedule: Q07DX002 (ip), vehicle: suspension in saline
[5] = dose: 50.0 mg/kg/injection, schedule: Q07DX002 (ip), vehicle: saline
[6] = dose: 50.0 mg/kg/injection, schedule: Q07DX002 (ip), vehicle: suspension in saline
[7] = dose: 100.0 mg/kg/injection, schedule: Q07DX002 (ip), vehicle: saline
[8] = dose: 100.0 mg/kg/injection, schedule: Q07DX002 (ip), vehicle: suspension in saline
[9] = dose: 200.0 mg/kg/injection, schedule: Q07DX002 (ip), vehicle: saline
[10] = dose: 200.0 mg/kg/injection, schedule: Q07DX002 (ip), vehicle: suspension in saline
[11] = dose: 400.0 mg/kg/injection, schedule: Q07DX002 (ip), vehicle: suspension in saline
[12] = dose: 12.5 mg/kg/injection, schedule: Q07DX002 (ip), vehicle: saline
[13] = dose: 25.0 mg/kg/injection, schedule: Q07DX002 (ip), vehicle: Klucel (hydroxypropylcellulose) (HPC)
[14] = dose: 50.0 mg/kg/injection, schedule: Q07DX002 (ip), vehicle: Klucel (hydroxypropylcellulose) (HPC)
[15] = dose: 100.0 mg/kg/injection, schedule: Q07DX002 (ip), vehicle: saline with Tween-80
[16] = dose: 100.0 mg/kg/injection, schedule: Q07DX002 (ip), vehicle: Klucel (hydroxypropylcellulose) (HPC)
[17] = dose: 200.0 mg/kg/injection, schedule: Q07DX002 (ip), vehicle: Klucel (hydroxypropylcellulose) (HPC)

COc1cccc2c1C(=O)c1c(O)c3c(c(O)c1C2=O)C[C@@](O)(C(=O)CO)C[C@@H]3OC1CC(OC(C)=O)C(OC(C)=O)C(C)O1 (some centres not stated)
T/C (dose: 3.12 mg/kg/injection, schedule: Q07DX002 (ip), vehicle: distilled water + Tween-80): 89 % of control | T/C (dose: 6.25 mg/kg/injection, schedule: Q07DX002 (ip), vehicle: distilled water + Tween-80): 88 % of control | T/C [1]: 65 % of control | T/C [2]: 90 % of control | T/C (dose: 50.0 mg/kg/injection, schedule: Q07DX002 (ip), vehicle: distilled water + Tween-80): 62 % of control

CC(C)(C)c1ccc(CN2CCN(C(c3ccccc3)c3ccc(Cl)cc3)CC2)cc1 (configuration not stated)
T/C (dose: 8.0 mg/kg/injection, schedule: Q07DX002 (ip), vehicle: Klucel (hydroxypropylcellulose) (HPC)): 92 % of control | T/C (dose: 16.0 mg/kg/injection, schedule: Q07DX002 (ip), vehicle: Klucel (hydroxypropylcellulose) (HPC)): 34 % of control | T/C (dose: 32.0 mg/kg/injection, schedule: Q07DX002 (ip), vehicle: Klucel (hydroxypropylcellulose) (HPC)): 82 % of control | T/C (dose: 64.0 mg/kg/injection, schedule: Q07DX002 (ip), vehicle: Klucel (hydroxypropylcellulose) (HPC)): 89 % of control | T/C (dose: 256.0 mg/kg/injection, schedule: Q07DX002 (ip), vehicle: Klucel (hydroxypropylcellulose) (HPC)): 87 % of control

CN(C)[C@@H]1C(=O)C(C(N)=O)=C(O)[C@@]2(O)C(=O)C3=C(O)c4c(O)ccc(Cl)c4[C@@](C)(O)[C@H]3C[C@@H]12
T/C [3]: 182 % of control | T/C [4]: 82 % of control | T/C [5]: 188 % of control | T/C [6]: 119 % of control | T/C [7]: 117 % of control | T/C [8]: 80 % of control | T/C [9]: 93 % of control | T/C [10]: 93 % of control | T/C [11]: 65 % of control

CCN=C=NCCCN(C)C
T/C [12]: 118 % of control | T/C [3]: 103 % of control | T/C [5]: 120 % of control | T/C [7]: 100 % of control

C/C(=N\N=C(/[Se])N1CC2CCC(CC2)C1)c1ccccn1
T/C (dose: 3.0 mg/kg/injection, schedule: Q07DX002 (ip), vehicle: Klucel (hydroxypropylcellulose) (HPC)): 111 % of control | T/C (dose: 6.0 mg/kg/injection, schedule: Q07DX002 (ip), vehicle: Klucel (hydroxypropylcellulose) (HPC)): 67 % of control | T/C (dose: 12.0 mg/kg/injection, schedule: Q07DX002 (ip), vehicle: Klucel (hydroxypropylcellulose) (HPC)): 91 % of control | T/C [13]: 106 % of control | T/C [14]: 45 % of control

Cc1ccccc1SSc1ccccc1C
T/C (dose: 25.0 mg/kg/injection, schedule: Q07DX003 (ip), vehicle: other): 92 % of control | T/C (dose: 25.0 mg/kg/injection, schedule: Q07DX003 (ip), vehicle: saline with Tween-80): 96 % of control | T/C (dose: 50.0 mg/kg/injection, schedule: Q07DX003 (ip), vehicle: other): 123 % of control | T/C (dose: 50.0 mg/kg/injection, schedule: Q07DX003 (ip), vehicle: saline with Tween-80): 88 % of control | T/C (dose: 100.0 mg/kg/injection, schedule: Q07DX003 (ip), vehicle: other): 89 % of control | T/C (dose: 100.0 mg/kg/injection, schedule: Q07DX003 (ip), vehicle: saline with Tween-80): 62 % of control | T/C (dose: 200.0 mg/kg/injection, schedule: Q07DX003 (ip), vehicle: other): 84 % of control | T/C (dose: 200.0 mg/kg/injection, schedule: Q07DX003 (ip), vehicle: saline with Tween-80): 74 % of control

C=C(C)/C([O-])=N/[N+](C)(C)CC(O)CCCCCCCCCCCC (configuration not stated)
T/C (dose: 25.0 mg/kg/injection, schedule: Q01DX001 (ip), vehicle: saline): 105 % of control | T/C (dose: 50.0 mg/kg/injection, schedule: Q01DX001 (ip), vehicle: saline): 100 % of control | T/C (dose: 100.0 mg/kg/injection, schedule: Q01DX001 (ip), vehicle: saline): 109 % of control | T/C (dose: 200.0 mg/kg/injection, schedule: Q01DX001 (ip), vehicle: saline): 108 % of control | T/C (dose: 400.0 mg/kg/injection, schedule: Q01DX001 (ip), vehicle: saline): 156 % of control

C1CN1c1nc(N2CC2)nc(N2CC2)n1
T/C (dose: 0.25 mg/kg/injection, schedule: Q07DX003 (ip), vehicle: saline): 30 % of control | T/C (dose: 0.5 mg/kg/injection, schedule: Q07DX003 (ip), vehicle: saline): 43 % of control | T/C (dose: 1.0 mg/kg/injection, schedule: Q07DX003 (ip), vehicle: saline): 36 % of control

O=C(CO)c1ccc([N+](=O)[O-])cc1
T/C (dose: 6.25 mg/kg/injection, schedule: Q07DX002 (ip), vehicle: saline with Tween-80): 72 % of control | T/C (dose: 12.5 mg/kg/injection, schedule: Q07DX002 (ip), vehicle: saline with Tween-80): 105 % of control | T/C (dose: 25.0 mg/kg/injection, schedule: Q07DX002 (ip), vehicle: saline with Tween-80): 90 % of control | T/C [15]: 97 % of control | T/C (dose: 200.0 mg/kg/injection, schedule: Q07DX002 (ip), vehicle: saline with Tween-80): 80 % of control

CC(=O)NC(CCc1ccc(Cl)c(Cl)c1)c1cccc(O)c(=O)c1 (configuration not stated)
T/C [13]: 161 % of control | T/C [16]: 109 % of control | T/C [17]: 122 % of control

O=C(O)C1CC(c2ccccc2)=NN1c1ccccc1 (configuration not stated)
T/C (dose: 25.0 mg/kg/injection, schedule: Q07DX002 (ip), vehicle: water): 114 % of control and 103 % of control | T/C (dose: 100.0 mg/kg/injection, schedule: Q07DX002 (ip), vehicle: water): 65 % of control | T/C (dose: 200.0 mg/kg/injection, schedule: Q07DX002 (ip), vehicle: water): 56 % of control and 69 % of control

CC1=C(/C=C/C(C)=C/C=C/C(C)=C/C=O)C(C)(C)CCC1
T/C [15]: 116 % of control

Nc1nc(/C=C(/O)c2ccccc2)c2ncn(C3OC(CO)C(O)C3O)c2n1 (configuration not stated)
T/C [1]: 100 % of control | T/C [12]: 120 % of control | T/C [2]: 85 % of control | T/C [3]: 87 % of control | T/C [5]: 89 % of control | T/C (dose: 100.0 mg/kg/injection, schedule: Q07DX002 (ip), vehicle: distilled water + Tween-80): 110 % of control | T/C [7]: 99 % of control | T/C [9]: 120 % of control

C1OC1CO[C@@H]1CO[C@H]2[C@@H]1OC[C@H]2OCC1CO1 (some centres not stated)
T/C (dose: 12.5 mg/kg/injection, schedule: Q07DX003 (ip), vehicle: saline): 47 % of control | T/C [4]: 116 % of control | T/C (dose: 25.0 mg/kg/injection, schedule: Q07DX003 (ip), vehicle: saline): 82 % of control | T/C [6]: 117 % of control | T/C (dose: 50.0 mg/kg/injection, schedule: Q07DX003 (ip), vehicle: saline): 83 % of control | T/C [8]: 79 % of control | T/C [10]: 98 % of control | T/C (dose: 200.0 mg/kg/injection, schedule: Q07DX003 (ip), vehicle: saline): 79 % of control and 94 % of control | T/C [11]: 70 % of control

C[C@]12CCC(=O)C(O)=C1CC[C@@H]1[C@@H]2CC[C@]2(C)C(=O)CC[C@@H]12
T/C [13]: 82 % of control | T/C [14]: 110 % of control and 101 % of control | T/C [16]: 176 % of control and 186 % of control | T/C [17]: 59 % of control and 84 % of control
